Laboratory results taken from ChEMBL document CHEMBL1201862, “PubChem BioAssay data set” (2004).
The source made the active and inactive calls.

Columns and labels:
cells [1] = assay type: functional, cell-based
[2] = test system: Streptococcus sp. 'group A'; experiment: Streptococcus pyogenes SK(-)GAS viability under kanamycin – luminescence, BacTiterGlo, confirmation, counter-screen for streptokinase expression inhibitor project, dose response (AID 1900); assay type: functional, organism-based
[3] = target: Neuropeptide Y receptor type 1 (Homo sapiens, UniProt P25929); experiment: Fluorescence-based counterscreen for agonists of NPY-Y2: cell-based high-throughput dose response assay for agonists of NPY-Y1.; assay type: functional
Neuropeptide Y receptor type 1, sequence (P25929 whole entry): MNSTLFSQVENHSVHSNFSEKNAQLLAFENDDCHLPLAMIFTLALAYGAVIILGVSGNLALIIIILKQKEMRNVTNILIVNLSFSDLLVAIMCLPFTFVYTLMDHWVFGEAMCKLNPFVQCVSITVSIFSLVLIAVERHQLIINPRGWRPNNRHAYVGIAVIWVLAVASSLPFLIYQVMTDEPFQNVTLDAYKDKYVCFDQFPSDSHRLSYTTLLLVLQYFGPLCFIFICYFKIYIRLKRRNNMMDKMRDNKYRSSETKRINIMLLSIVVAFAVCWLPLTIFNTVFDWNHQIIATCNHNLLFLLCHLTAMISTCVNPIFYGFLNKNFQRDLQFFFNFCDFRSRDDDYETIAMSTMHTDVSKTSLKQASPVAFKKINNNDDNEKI

HEK293 = experiment: Fluorescence-based counterscreen for potentiators or agonists of NPY-Y2: cell-based high-throughput dose response assay to identify inhibitors of cyclic nucleotide gated ion channel (CNGC) activity. In this assay, the parental HEK293 cell line transfected with a cyclic-nucleotide gated ion channel (CNGC)-based cAMP sensor is used to measure inhibition of isoproterenol-induced CNGC activity by test compound.; assay type: functional; settings: Homo sapiens
INS1 = experiment: INS-1E survival protection against cytokine death – cell-based, luminescence, retest, dose response (AID 449756); assay type: functional; settings: Rattus norvegicus;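 further: cell death triggered by IL-1 beta plus TNF-alpha plus IFN-gamma mixture; protective hits raise ATP signal compared with cytokine alone wells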
BJ = experiment: growth inhibition of engineered Ras-driven BJ cells – cell-based, alamar blue fluorescence, cherrypicked samples, dose response (AID 2631); assay type: functional; settings: Homo sapiens;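 further: confirmatory dose-response assay in RAS-dependent BJ fibroblasts engineered with TERT, LT and ST, with cytotoxicity read by fluorescence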
cells [4] = assay type: functional, cell-based; remark: listed apart in the source
[5] = target: Neuropeptide Y receptor type 2 (Homo sapiens, UniProt P49146); experiment: Fluorescence-based cell-based high-throughput dose response assay for agonists of NPY-Y2. [Related pubchem assays: 1703 (Screening assay (CNGC inhibitors).), 1359 (Screening assay (NPY-Y2 potentiators or agonists).), 1304 (Screening assay (NPY-Y1 potentiators or agonists).), 1710 (Screening assay (NPY-Y2 agonists).), 1791 (Summary AID.)]; assay type: functional
Neuropeptide Y receptor type 2, sequence (P49146 whole entry): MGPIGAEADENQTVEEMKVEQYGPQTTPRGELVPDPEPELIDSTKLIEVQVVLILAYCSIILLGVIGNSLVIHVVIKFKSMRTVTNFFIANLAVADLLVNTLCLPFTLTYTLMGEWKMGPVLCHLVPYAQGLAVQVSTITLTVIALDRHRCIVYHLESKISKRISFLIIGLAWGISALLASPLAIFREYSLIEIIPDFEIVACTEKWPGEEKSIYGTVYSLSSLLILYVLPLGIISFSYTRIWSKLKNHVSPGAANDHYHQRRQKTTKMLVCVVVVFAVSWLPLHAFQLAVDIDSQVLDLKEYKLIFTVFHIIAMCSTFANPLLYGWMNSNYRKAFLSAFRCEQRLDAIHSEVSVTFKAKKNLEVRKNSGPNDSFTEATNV

[6] = target: T1, DNA repair protein RAD52 homolog (Homo sapiens, UniProt P43351); assay type: functional, biochemical
T1 sequence (P43351 whole entry): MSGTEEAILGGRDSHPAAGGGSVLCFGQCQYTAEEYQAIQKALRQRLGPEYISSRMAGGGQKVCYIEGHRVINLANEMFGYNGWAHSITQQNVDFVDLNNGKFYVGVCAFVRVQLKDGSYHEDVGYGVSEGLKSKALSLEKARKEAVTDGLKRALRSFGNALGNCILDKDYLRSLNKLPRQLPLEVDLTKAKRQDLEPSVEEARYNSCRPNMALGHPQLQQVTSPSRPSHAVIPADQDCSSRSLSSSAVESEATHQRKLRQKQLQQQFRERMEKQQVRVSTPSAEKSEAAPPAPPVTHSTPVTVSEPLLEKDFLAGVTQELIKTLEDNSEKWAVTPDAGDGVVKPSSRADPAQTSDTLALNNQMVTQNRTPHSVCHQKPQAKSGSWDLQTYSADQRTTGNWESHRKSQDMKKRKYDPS

Streptococcus = experiment: GAS UMAA2166 growth inhibition – luminescence, BacTiterGlo, counter-screen for streptokinase expression inhibitor project, dose response (AID 1915); assay type: functional, organism-based;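 further: potency for reduction of bacterial viability or growth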
Streptokinase A = target: T2, Streptokinase A (Streptococcus pyogenes serotype M1, UniProt P10520); experiment: viability-normalized secreted streptokinase activity reduction – plasminogen activation absorbance, OD405, dose response (AID 1914); assay type: functional, Streptococcus pyogenes M1 GAS;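 further: secreted streptokinase activity via plasminogen activation per viability signal from cell pellet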
T2 sequence (P10520 whole entry): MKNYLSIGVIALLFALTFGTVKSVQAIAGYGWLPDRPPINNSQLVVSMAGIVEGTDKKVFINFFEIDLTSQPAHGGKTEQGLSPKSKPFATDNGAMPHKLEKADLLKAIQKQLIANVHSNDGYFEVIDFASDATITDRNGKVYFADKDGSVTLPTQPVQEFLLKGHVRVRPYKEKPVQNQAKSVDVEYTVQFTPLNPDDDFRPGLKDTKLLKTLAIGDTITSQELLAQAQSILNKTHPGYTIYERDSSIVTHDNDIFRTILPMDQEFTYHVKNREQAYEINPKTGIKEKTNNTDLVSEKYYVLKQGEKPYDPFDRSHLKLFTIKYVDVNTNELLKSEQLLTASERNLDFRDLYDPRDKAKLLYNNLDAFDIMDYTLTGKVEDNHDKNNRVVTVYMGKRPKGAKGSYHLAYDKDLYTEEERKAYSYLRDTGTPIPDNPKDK

[7] = target: DNA (cytosine-5)-methyltransferase 1 (Homo sapiens, UniProt P26358); experiment: inhibition of DNA methylation by DNMT1 – biochemical, fluorescent molecular beacon, confirmation (AID 602386); assay type: functional
DNA (cytosine-5)-methyltransferase 1, sequence (P26358 whole entry): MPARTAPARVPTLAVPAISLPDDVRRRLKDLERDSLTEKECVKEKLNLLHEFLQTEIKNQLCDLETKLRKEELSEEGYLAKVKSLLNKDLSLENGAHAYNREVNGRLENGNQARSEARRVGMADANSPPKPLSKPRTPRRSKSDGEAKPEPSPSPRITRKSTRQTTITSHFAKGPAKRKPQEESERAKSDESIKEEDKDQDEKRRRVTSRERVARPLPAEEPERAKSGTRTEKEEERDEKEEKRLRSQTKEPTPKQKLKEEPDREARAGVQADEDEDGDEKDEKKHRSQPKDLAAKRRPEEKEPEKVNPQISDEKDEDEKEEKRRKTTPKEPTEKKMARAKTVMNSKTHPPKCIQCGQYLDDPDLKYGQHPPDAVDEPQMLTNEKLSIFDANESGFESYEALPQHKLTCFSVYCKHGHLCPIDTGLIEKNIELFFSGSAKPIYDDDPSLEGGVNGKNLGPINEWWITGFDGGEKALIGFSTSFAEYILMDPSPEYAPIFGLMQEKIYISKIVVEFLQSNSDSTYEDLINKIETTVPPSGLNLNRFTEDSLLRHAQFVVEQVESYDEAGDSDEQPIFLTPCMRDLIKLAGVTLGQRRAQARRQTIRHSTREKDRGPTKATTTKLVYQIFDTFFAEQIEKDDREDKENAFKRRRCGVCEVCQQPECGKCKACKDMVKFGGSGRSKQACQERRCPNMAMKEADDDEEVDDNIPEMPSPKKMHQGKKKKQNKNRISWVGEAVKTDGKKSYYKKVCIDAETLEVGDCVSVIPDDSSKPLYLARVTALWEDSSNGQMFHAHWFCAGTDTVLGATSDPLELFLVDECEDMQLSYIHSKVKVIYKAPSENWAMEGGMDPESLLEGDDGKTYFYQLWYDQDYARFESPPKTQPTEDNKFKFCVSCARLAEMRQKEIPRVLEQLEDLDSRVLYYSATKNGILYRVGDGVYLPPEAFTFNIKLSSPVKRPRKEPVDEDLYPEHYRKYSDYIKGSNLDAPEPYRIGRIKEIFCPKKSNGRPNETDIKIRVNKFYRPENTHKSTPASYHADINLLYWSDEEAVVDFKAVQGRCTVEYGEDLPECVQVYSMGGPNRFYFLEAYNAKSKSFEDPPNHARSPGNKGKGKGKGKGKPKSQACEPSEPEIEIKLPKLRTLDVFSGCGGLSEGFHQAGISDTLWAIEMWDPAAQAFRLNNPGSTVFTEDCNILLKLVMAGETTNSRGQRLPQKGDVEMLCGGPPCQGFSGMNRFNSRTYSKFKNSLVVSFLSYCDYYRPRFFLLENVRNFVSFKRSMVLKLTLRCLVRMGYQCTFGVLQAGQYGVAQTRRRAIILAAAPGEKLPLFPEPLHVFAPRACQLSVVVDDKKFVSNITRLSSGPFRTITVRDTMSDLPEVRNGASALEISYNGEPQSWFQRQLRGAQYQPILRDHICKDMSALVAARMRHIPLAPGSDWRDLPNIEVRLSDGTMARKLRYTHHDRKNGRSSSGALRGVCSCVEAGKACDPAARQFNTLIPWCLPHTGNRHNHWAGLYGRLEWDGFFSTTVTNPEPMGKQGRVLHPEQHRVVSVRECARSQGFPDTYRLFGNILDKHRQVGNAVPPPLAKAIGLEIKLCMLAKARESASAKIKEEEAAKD

NS3 = NS3 (Hepatitis C virus, UniProt A3EZJ3); experiment: PubChem AID 2173; design: species or system Hepacivirus hominis
NS3, sequence (A3EZJ3 whole entry): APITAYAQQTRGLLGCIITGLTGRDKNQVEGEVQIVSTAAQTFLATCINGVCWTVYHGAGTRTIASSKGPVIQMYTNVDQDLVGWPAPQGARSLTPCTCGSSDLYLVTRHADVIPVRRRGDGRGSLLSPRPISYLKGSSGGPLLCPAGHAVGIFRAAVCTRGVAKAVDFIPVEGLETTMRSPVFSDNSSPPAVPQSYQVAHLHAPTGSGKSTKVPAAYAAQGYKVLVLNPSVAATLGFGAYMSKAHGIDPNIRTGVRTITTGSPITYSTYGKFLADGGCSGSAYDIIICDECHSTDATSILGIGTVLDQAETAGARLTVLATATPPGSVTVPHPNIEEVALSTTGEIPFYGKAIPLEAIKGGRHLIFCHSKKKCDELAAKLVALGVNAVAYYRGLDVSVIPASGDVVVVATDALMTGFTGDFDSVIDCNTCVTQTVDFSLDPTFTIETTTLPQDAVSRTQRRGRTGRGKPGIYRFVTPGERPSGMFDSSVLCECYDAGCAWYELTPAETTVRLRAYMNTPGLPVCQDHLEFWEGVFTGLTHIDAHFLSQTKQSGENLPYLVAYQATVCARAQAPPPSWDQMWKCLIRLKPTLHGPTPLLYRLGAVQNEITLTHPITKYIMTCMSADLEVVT

Phospholipase A2 = Phospholipase A2 (Homo sapiens, UniProt P04054); assay type: functional;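 further: confirmatory dose-response counterscreen on phospholipase A2, testing hits that came from an ultra-high-throughput screen for ATG4B inhibitors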
Phospholipase A2, sequence (P04054 whole entry): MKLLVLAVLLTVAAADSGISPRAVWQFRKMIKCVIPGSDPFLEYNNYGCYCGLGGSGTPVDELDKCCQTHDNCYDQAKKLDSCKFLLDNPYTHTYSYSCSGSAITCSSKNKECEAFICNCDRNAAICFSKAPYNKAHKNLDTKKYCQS

Cysteine protease ATG4B = Cysteine protease ATG4B (Homo sapiens, UniProt Q9Y4P1); assay type: functional;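 further: Fluorescence-based dose-response confirmation assay measuring inhibition of ATG4B activity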
Cysteine protease ATG4B, sequence (Q9Y4P1 whole entry): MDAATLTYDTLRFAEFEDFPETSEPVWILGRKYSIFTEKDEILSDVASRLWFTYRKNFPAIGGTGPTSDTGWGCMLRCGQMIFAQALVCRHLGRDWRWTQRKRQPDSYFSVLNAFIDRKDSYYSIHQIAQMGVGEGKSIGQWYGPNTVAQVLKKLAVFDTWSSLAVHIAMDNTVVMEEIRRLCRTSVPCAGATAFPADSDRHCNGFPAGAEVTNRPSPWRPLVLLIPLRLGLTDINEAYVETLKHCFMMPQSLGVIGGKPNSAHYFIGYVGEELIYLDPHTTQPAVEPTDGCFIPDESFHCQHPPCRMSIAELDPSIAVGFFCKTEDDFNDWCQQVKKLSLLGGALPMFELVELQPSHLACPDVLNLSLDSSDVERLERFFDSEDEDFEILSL

[8] = target: Peroxisome proliferator-activated receptor gamma/Nuclear receptor coactivator 2 (Homo sapiens, UniProt P37231); experiment: (§1) TR-FRET dose response biochemical High Throughput Screening assay for agonists of the steroid receptor coactivator 2 (SRC-2) recruitment by the peroxisome proliferator-activated receptor gamma (PPAR gamma): non-selective agonists. [Related pubchem assays: 1297, 1032 ]; assay type: functional
[9] = target: Peroxisome proliferator-activated receptor gamma/Nuclear receptor coactivator 1 (Homo sapiens, UniProt P37231); experiment: as §1, with “1 (SRC-1)” for “2 (SRC-2)”, “assays (depositor defined):AID1300, AID1808, AID504735, AID631]” for “assays: 1297, 1032 ]”; assay type: protein assay
[10] = target: Peroxisome proliferator-activated receptor gamma/Nuclear receptor coactivator 3 (Homo sapiens, UniProt P37231); experiment: as §1, with “3 (SRC-3)” for “2 (SRC-2)”, “1301 (Confirmation screen.), 1048 (Primary screen.)]” for “1297, 1032 ]”; assay type: functional
cells [11] = assay type: functional
[12] = A High Throughput Confirmatory Assay used to Identify Novel Compounds that Inhibit Mycobacterium Tuberculosis in the absence of Glycerol.; assay type: functional
[13] = viability of HCT116 lacking mutant beta-catenin – cell-based, human colon tumor, dose response (AID 1045); assay type: functional;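 further: HCT116 colon tumor cells with beta catenin knocked out; cells exposed to compound for 60 hours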
[14] = target: FAD-linked sulfhydryl oxidase ALR (Homo sapiens, UniProt P55789); experiment: ALR-catalysed DTT oxidation blockers – biochemical, H2O2 detection, luminescence, cherry-pick, dose response (AID 493248)
FAD-linked sulfhydryl oxidase ALR, sequence (P55789 whole entry): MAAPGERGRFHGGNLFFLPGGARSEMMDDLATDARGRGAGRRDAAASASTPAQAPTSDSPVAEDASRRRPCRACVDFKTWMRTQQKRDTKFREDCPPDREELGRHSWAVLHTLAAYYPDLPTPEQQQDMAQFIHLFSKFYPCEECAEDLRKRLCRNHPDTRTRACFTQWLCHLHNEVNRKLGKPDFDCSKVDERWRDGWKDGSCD

[15] = viability loss of HPDE-C7K cells – cell-based, fluorescence, HTS, primary screen (AID 431); assay type: functional; settings: Homo sapiens
[16] = viability of PTEN-deleted HCT116 cells – cell-based, HCT116 PTEN knockout, dose response (AID 1047); assay type: functional;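 further: HCT116 colon tumor cells with PTEN knocked out; cells exposed to compound for 60 hours before readout; potency for loss of cell viability measured by luminescence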
[17] = HPDE-C7 pancreatic duct cell viability loss – fluorescence, HTS (AID 430); assay type: functional, cell-based; settings: Homo sapiens
Bcl-2-related protein A1 [18] = target: T3, Bcl-2-related protein A1 (Mus musculus, UniProt Q07440); experiment: small-molecule antagonists of Bfl-1/BH3 interaction – biochemical, TR-FRET, mouse Bfl-1, confirmation (AID 621);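 further: TR-FRET binding of GST-Bfl-1 to FITC-labelled Bid peptide via terbium antibody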
T3 sequence (Q07440 whole entry): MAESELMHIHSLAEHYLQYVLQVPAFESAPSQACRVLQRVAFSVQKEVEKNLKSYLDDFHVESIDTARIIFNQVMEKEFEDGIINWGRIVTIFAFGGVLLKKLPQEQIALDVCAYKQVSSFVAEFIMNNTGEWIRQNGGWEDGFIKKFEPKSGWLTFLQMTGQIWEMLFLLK

Bcl-2-related protein A1 [19] = target: T3, Bcl-2-related protein A1; experiment: Bfl-1 binding inhibitors, SAR follow-up, biochemical, fluorescence polarization (AID 1070)
[20] = Luminescence Cell-Based Dose Confirmation HTS to Identify Inhibitors of Polyadenylation.; assay type: functional

## Cc1sc2cc3c(c(C(=O)c4ccccc4)[n+]2c1C)-c1cccc2cccc-3c12
Cells [1]
  EC50: > 350 µM (not active)
[2]
  EC50: 6.52 µM (active)
[3]
  EC50: 8.19 µM (active)
HEK293
  EC50: 12.3 µM (not active)
INS1
  AC50: 1.91 µM (active)
BJ
  EC50: 30.6 µM (active)
Cells [4]
  EC50: > 350 µM (not active)
[5]
  EC50: 11.5 µM (not active)
[6]
  AC50: 1.43 µM (active)
Streptococcus
  EC50: 23.5 µM (active)
Streptokinase A
  EC50: 31.9 µM (active)

## O=C1NN(c2ccccc2)C(=O)/C1=C/c1ccc(Sc2cccc3ccccc23)o1
[7]
  IC50: 7.12 µM (active)
NS3
  IC50: 5.55 µM (active)
Phospholipase A2
  IC50: 8.08 µM (active)
Cysteine protease ATG4B
  IC50: 8.56 µM (active)
[8]
  EC50: 92.2 µM (not active)
[9]
  EC50: > 79.4 µM (inactive)
[10]
  EC50: > 79.4 µM (not active)

## O=c1oc(-c2cccs2)nc2c1cnn2-c1ccccc1
Cells [11]
  IC50: 4.92 µM (active)
[12]
  IC50: > 100 µM (active)

## CCN(CCNC(=O)C1CCN(Cc2nc(-c3cccc(Cl)c3)oc2C)CC1)c1ccccc1
[13]
  EC50: 10.7 µM (active)
[14]
  AC50: 0.024 µM (active)
[15]
  EC50: > 20 µM (not active)
[16]
  EC50: 13.3 µM (active)
[17]
  EC50: > 20 µM (not active)

## C[C@@H]1CN(C2=C(Cl)C(=O)N(c3ccc(Cl)c(Cl)c3)C2=O)CCN1
Bcl-2-related protein A1 [18]
  IC50: 1.03 µM (active)
Bcl-2-related protein A1 [19]
  IC50: 1.16 µM (active)

## O=C(O)c1ccc(SCc2cnc(Cl)s2)cc1
[20]
  EC50: > 120 µM (not active)
